{"source": "patent US20090148399A1", "about": "“Controlled release attractant for gravid female mosquitoes” (priority 2007, published 2009)", "origin": "cited, not measured here", "system": "gravid female C. quinquefasciatus", "conditions": "gravid female Culex quinquefasciatus", "data": [{"smiles": "Cc1c[nH]c2ccccc12", "note": "[3-Methyl indole]", "values": [{"measurement": "oviposition attractancy", "result": "highly effective attractant"}]}, {"smiles": "CCCCCCCCCC[C@H](OC(C)=O)[C@H]1CCCC(=O)O1", "note": "[(5R,6S)-6-acetetoxy-5-hexadecanolide]", "values": [{"measurement": "oviposition attractancy", "result": "attracts other females of the same species to deposit their eggs gregariously"}]}]}
